Data on two compounds can be found in ChEMBL document CHEMBL5634153, “Design, synthesis and preclinical evaluation of muscarine receptor antagonists via a scaffold-hopping approach” (Eur J Med Chem, 2023).

The nature of data set [1]: Lipophilicity, log P of compound at pH 7.4 by HPLC analysis. The conditions noted are these: buffer. Type of data set: physicochemical.
Data set [2] is described as follows: Cytotoxicity against CHO-K1 cells expressing human muscarinic receptor M1 incubated for 72 hrs by MTT assay. In kind it is toxicity, cell-based. The settings on record: Chinese hamster (Cricetulus griseus).
For data set [3], the target named is T1, Muscarinic acetylcholine receptor M1 (Homo sapiens, UniProt P11229).
T1 sequence (P11229 whole entry): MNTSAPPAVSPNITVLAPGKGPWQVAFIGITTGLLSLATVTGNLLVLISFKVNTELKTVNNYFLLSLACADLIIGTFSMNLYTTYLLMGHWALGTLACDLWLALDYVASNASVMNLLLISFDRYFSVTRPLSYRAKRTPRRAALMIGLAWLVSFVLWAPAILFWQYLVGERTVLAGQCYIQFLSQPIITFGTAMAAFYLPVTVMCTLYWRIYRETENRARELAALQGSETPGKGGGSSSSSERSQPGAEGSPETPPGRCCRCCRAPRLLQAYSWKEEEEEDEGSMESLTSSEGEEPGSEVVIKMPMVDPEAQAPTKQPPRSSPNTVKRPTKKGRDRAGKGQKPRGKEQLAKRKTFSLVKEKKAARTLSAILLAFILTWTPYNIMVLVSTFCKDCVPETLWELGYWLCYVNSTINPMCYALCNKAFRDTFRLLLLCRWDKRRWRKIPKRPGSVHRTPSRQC
Kind of data set: Displacement of [3H]NMS from human muscarinic M1 receptor expressed in CHO-K1 cell membrane assessed as inhibition constant incubated for 90 mins by competitive radioligand binding assay. Type of data set: cell membranes.

Data set [4] deals with T2, Muscarinic acetylcholine receptor M2 (Homo sapiens, UniProt P08172).
T2 sequence (P08172 whole entry): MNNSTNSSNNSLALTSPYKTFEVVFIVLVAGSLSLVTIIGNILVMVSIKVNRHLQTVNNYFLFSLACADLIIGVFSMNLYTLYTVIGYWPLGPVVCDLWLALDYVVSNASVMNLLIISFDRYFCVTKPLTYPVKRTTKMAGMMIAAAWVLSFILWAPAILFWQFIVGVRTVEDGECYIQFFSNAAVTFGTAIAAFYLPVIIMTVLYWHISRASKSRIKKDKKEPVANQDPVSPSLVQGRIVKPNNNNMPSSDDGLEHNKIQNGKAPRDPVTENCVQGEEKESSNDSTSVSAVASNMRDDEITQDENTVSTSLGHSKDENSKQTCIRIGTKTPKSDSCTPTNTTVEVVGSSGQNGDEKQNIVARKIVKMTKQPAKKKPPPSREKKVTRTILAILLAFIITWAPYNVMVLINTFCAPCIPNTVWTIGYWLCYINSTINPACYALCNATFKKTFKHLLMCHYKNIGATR
Kind of data set: Displacement of [3H]NMS from human muscarinic M2 receptor expressed in CHO-K1 cell membrane assessed as inhibition constant incubated for 90 mins by competitive radioligand binding assay. In kind it is cell membranes.

Data set [5] has as its target Muscarinic acetylcholine receptor M3 (Homo sapiens, UniProt P20309). Kind of data set: Displacement of [3H]NMS from human muscarinic M3 receptor expressed in CHO-K1 cell membrane assessed as inhibition constant incubated for 90 mins by competitive radioligand binding assay. In kind it is cell membranes.
For data set [6], the target named is T3, Muscarinic acetylcholine receptor M4 (Homo sapiens, UniProt P08173).
T3 sequence (P08173 whole entry): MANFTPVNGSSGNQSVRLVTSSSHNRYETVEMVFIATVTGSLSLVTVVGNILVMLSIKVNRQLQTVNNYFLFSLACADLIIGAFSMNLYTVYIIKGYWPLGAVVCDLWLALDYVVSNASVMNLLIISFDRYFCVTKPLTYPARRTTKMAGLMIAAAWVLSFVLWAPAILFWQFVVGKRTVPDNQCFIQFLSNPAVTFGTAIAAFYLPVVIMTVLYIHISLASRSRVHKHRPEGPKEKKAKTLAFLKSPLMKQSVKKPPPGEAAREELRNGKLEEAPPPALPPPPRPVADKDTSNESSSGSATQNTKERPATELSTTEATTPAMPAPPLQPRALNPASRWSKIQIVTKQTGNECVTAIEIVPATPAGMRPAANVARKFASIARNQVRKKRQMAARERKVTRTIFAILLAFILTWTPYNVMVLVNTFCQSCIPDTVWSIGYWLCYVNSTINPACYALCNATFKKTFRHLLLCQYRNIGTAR
Kind of data set: Displacement of [3H]NMS from human muscarinic M4 receptor expressed in CHO-K1 cell membrane assessed as inhibition constant incubated for 90 mins by competitive radioligand binding assay. In kind it is cell membranes.

The target of data set [7] is T4, Muscarinic acetylcholine receptor M5 (Homo sapiens, UniProt P08912).
T4 sequence (P08912 whole entry): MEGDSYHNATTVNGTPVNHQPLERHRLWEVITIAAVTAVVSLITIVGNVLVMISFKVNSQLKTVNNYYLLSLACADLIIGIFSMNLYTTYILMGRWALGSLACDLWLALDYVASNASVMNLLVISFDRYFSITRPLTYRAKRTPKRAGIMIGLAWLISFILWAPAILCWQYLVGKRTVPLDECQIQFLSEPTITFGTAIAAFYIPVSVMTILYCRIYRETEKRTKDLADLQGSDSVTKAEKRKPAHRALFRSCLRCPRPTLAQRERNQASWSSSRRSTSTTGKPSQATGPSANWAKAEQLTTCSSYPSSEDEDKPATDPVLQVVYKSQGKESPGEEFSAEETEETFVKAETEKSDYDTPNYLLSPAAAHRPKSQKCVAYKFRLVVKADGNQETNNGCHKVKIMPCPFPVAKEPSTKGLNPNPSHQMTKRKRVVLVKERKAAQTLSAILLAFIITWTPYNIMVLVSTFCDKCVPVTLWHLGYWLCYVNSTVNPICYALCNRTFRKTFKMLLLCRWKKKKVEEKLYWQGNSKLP
Kind of data set: Displacement of [3H]NMS from human muscarinic M5 receptor expressed in CHO-K1 cell membrane assessed as inhibition constant incubated for 90 mins by competitive radioligand binding assay. Type of data set: cell membranes.

The species entered for data set [8] is Homo sapiens. Kind of data set: Selectivity ratio of Ki for human muscarinic M1 receptor expressed in CHO-K1 cells to Ki for human muscarinic M5 receptor expressed in CHO-K1 cells. Type of data set: cell-based.
For data set [9], the species on record is Homo sapiens. Kind of data set: Selectivity ratio of Ki for human muscarinic M3 receptor expressed in CHO-K1 cells to Ki for human muscarinic M5 receptor expressed in CHO-K1 cells. In kind it is cell-based.
Data set [10] is filed under the species Homo sapiens. Kind of data set: Selectivity ratio of Ki for human muscarinic M4 receptor expressed in CHO-K1 cells to Ki for human muscarinic M5 receptor expressed in CHO-K1 cells. In kind it is cell-based.
Data set [11] concerns the target Muscarinic acetylcholine receptor M2 and M5 (Homo sapiens) (UniProt P08172+P08912). Kind of data set: Selectivity ratio of Ki for human muscarinic M2 receptor expressed in CHO-K1 cells to Ki for human muscarinic M5 receptor expressed in CHO-K1 cells. In kind it is cell-based.
The target in data set [12] is T5, Muscarinic acetylcholine receptor M1 (Homo sapiens) (UniProt P11229).
T5 sequence (whole entry): T1 sequence (P11229 whole entry)
Kind of data set: Antagonist activity at human muscarinic M1 receptor expressed in CHO-K1 cell membrane assessed as reduction in carbachol-induced ca2+ influx by fluorescence based assay. Type of data set: functional, cell membranes. The conditions noted are these: filed as antagonist.

Data set [13] deals with T5, Muscarinic acetylcholine receptor M1 (Homo sapiens). Kind of data set: Agonist activity at human muscarinic M1 receptor expressed in CHO-K1 cell membrane upto 100 uM by fluorescence based assay. Type of data set: functional, cell membranes.
Data set [14] addresses Muscarinic acetylcholine receptor M1 and M3 (Homo sapiens) (UniProt P20309+P11229). Kind of data set: Selectivity ratio of Ki for human muscarinic M1 receptor expressed in CHO-K1 cells to Ki for human muscarinic M3 receptor expressed in CHO-K1 cells. Type of data set: cell-based.
In data set [15] the target is Muscarinic acetylcholine receptors; M2 & M3 (Homo sapiens) (UniProt P20309+P08172). Kind of data set: Selectivity ratio of Ki for human muscarinic M2 receptor expressed in CHO-K1 cells to Ki for human muscarinic M3 receptor expressed in CHO-K1 cells. In kind it is cell-based.
Chain of Muscarinic acetylcholine receptors; M2 & M3 (Homo sapiens) (P20309 whole entry, looked up, one chain of several): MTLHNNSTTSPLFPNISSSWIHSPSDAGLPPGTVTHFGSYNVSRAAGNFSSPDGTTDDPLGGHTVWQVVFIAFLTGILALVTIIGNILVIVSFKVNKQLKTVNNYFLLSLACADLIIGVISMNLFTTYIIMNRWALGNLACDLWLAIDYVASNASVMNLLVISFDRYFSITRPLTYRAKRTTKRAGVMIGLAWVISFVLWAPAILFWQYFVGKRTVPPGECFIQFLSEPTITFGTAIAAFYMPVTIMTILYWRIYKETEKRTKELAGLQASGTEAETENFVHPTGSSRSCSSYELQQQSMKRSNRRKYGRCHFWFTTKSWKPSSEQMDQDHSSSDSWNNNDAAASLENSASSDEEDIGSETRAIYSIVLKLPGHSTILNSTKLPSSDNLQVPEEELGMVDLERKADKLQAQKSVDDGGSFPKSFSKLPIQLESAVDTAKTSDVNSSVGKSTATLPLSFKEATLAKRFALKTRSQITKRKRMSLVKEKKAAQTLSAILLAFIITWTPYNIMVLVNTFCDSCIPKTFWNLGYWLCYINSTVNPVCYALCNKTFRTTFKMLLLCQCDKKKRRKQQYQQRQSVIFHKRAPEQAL
The species named for data set [16] is Homo sapiens. Kind of data set: Selectivity ratio of Ki for human muscarinic M4 receptor expressed in CHO-K1 cells to Ki for human muscarinic M3 receptor expressed in CHO-K1 cells. In kind it is cell-based.
For data set [17], the species on record is Homo sapiens. Kind of data set: Selectivity ratio of Ki for human muscarinic M5 receptor expressed in CHO-K1 cells to Ki for human muscarinic M3 receptor expressed in CHO-K1 cells. Type of data set: cell-based.

Calls of active or inactive are those of the source. No cut-off for these calls is given here.

Chain of Muscarinic acetylcholine receptor M3 (P20309 whole entry): as the sequence (P20309 whole entry, looked up, one chain of several) above
Chain of Muscarinic acetylcholine receptor M1 and M3 (Homo sapiens) (P20309 whole entry, looked up, one chain of several): as above

On to `CN1CCC(Oc2nc3ccccc3n2-c2ccccc2)C1` (racemic), for which, in data set [1], the logP is on record as 2.81. Also, the IC50 at 72 h in data set [2] is not below 100000 nM. For the same compound, the Ki in data set [3] worked out at 51 nM; in data set [4], 258 nM; in [5] it was 60 nM; in data set [6], 65 nM; in data set [7], 14 nM. For the same compound, the Ratio Ki in the data set filed under Homo sapiens [8] stood at 4; in the data set listed under Homo sapiens [9], 4; in the data set filed under Homo sapiens [10] it was 4; in [11], 18. Moreover, in [12], the Activity entry was “Dose-Dependent Effect”. Further, the result in data set [13] was inactive.
As to `CN1[C@@H]2CC[C@H]1C[C@@H](Oc1nc3ccccc3n1-c1ccccc1)C2`, in data set [1], the logP stood at 2.73. Moreover, the IC50 at 72 h in data set [2] was not below 100000 nM. For the same compound, the Ki was 101 nM in [3]; 442 nM in data set [4]; 46 nM in data set [5]; 201 nM in data set [6]; more than 1000 nM in [7]. Further, the Ratio Ki (in data set [14]; in data set [15]; in the data set filed under Homo sapiens [16]; in the data set filed under Homo sapiens [17]) was 2.5 each time.
